Results from patent US6838237B2, “Antigenically reactive regions of the hepatitis a virus polyprotein” (The United States of America as represented by the …, priority 1996, dated 2005).
Several values for one entry are separate records, joined by “and”; a condition that tells them apart may be missing. Identical values can stand only once.

Key:
[1] = system: anti-HAV-positive sera; experiment: EIA for anti-HAV: synthetic peptides adsorbed to wells, reacted with anti-HAV-positive acute sera; assay type: binding, human; conditions: for Reactivity with acute sera (reactive/tested): experiment 1: sera 1:100, anti-human IgG-HRP, cutoff P/N 3.0; for Reactivity with acute sera (percent of sera reactive): experiment 1: sera 1:100, cutoff P/N 3.0; for P/N for acute sera (mean) / P/N for acute sera (range, in parentheses): OD493 positive/negative ratio of reactive sera
Text: (§1) All anti-HAV-positive and anti-HAV-negative sera were randomly selected from a collection reposited at the Centers for Disease Control and Prevention, Atlanta, Ga. Serum specimens were collected from anti-HAV-positive patients with acute liver disease. Anti-HAV-negative serum specimens were collected from normal blood donors. All sera were initially tested by commercially available kit for the presence of anti-HAV activity (HAVAB and HAVAB-M, Abbott Laboratories, Abbott Park, Ill.)
(§2) Synthetic peptides (110 ml) at a concentration of 10 mg/ml in 0.1 M phosphate-buffered saline (PBS), pH 7.5, were adsorbed to microtiter wells (Immulon II, Dynatech Laboratories, Inc.) at room temperature for 12 h. Sera were diluted in PBS containing 0.1% Tween 20 and 10% normal goat serum (PBS-T) and 100 ml were added to each well, incubated for 60 min at 37E C, and washed with PBS containing Tween-20. […] Two different cutoffs were established for experiments 1 and 2. In experiment 1, the cutoff, expressed as a P/N ratio and equal to 3.0, was statistically established as the mean of negative controls plus at least 3.5 standard deviations (SD) above the mean, where P represents the optical density value at 493 nm (OD493) of anti-HAV-positive specimens and N represents the optical density value of negative controls. In experiment 2, a different cutoff was used to ensure statistical reliability and accurate interpretation of positive results. In this case, in addition to anti-HAV-negative sera, two irrelevant synthetic peptides were used as supplemental negative controls to determine the degree of nonspecific binding of anti-HAV sera to synthetic peptides. One cutoff, expressed as a P/N ratio and equal to 3.0, corresponded to the mean of negative serum controls plus at least 3.5 SD above the mean. A second cutoff was also expressed as a P/N ratio, where P represents the optical density value at 493 nm (OD493) for HAV peptides immunoreacting with anti-HAV-positive specimens and N represents the optical density value obtained with the irrelevant peptides. The second cutoff was equal 2.0 and corresponded to the mean of OD values obtained with the irrelevant peptides plus at least 3.5 SD above the mean. Synthetic peptides were considered immunoreactive with anti-HAV serum specimens only when both cutoffs were satisfied.

[2] = system: anti-HAV-negative sera; experiment: EIA for anti-HAV: synthetic peptides reacted with anti-HAV-negative sera; assay type: binding, human; conditions: experiment 1: sera 1:100, cutoff P/N 3.0
Text: as §1, §2

| Sequence | Reactivity with acute sera (reactive/tested) [1] | Reactivity with acute sera (percent of sera reactive) [1] [%] | P/N for acute sera (individual values) ([1]; experiment 1, single sera listed with semicolon) | Reactivity with negative sera (reactive/tested) [2] | P/N for acute sera (mean) ([1]; experiment 1) | P/N for acute sera (range, in parentheses) ([1]; experiment 1) | immunoreactivity with anti-HAV-positive sera (in words) [1] | mean P/N ratio with anti-HAV-positive sera [1] | percent of (IgM) anti-HAV-positive sera immunoreactive with peptide [1] [%] |
| --- | --- | --- | --- | --- | --- | --- | --- | --- | --- |
| PLNSNAMLSTESMMSRIAAG [YK-1310] | 3/48 | 6.3 | 3.68 and 5.23 | 0/51 | – | – | – | – | – |
| QNVPDPQVGITTMKDLKGKA [YK-1266] | 14/46 | 30.4 | – | 0/48 | 8.25 | (3.27-18.30) | – | – | – |
| KNPHNDMLNVNLAKTNDAIK [YK-1363] | 5/41 | 12.2 | – | 0/41 | 5.96 | (5.31-6.33) | – | – | – |
| VLPPPRKMKGLFSQAKISLF [YK-1318] | 15/48 | 31.3 | – | 0/51 | 5.94 | (3.4-8.68) | – | – | – |
| RIMKVEFTQCSMNVVSKTLF [YK-1394] | 13/41 | 31.7 | – | 3/27 | 6.98 | (4.05-12.93) | – | – | – |
| PYKELRLEVGKQRLKYAQEE [YK-1316] | 20/48 | 41.7 | – | 2/51 | 8.71 | (3.5-17.8) | – | – | – |
| VIQQLNQDEHSHIIGLLRVM [YK-1334] | 5/48 | 10.4 | – | 2/51 | 4.27 | (3.16-5.27) | marginally immunoreactive | – | – |
| CPKDELRPLEKVLESKTRAI [YK-1411] | 8/41 | 19.5 | – | 0/27 | 8.18 | (4.65-17.65) | – | – | – |
| HFKDPQYPVWELTIRVWSEL [YK-1222] | 2/41 | 4.9 | – | 0/46 | 4.29 | – | – | – | – |
| GLDHILSLADIEEEQMIQSV [YK-1206] | 8/42 | 19.1 | – | 0/46 | 9.46 | (3.01-27.07) | – | – | – |
| KINLADRMLGLSGVQEIKEQ [YK-1331] | 13/48 | 27.1 | – | 0/51 | 5.71 | (3.71-10.3) | – | – | – |
| LAKTNDAIKDMSCVDLIMDG [YK-1364] | 4/41 | 9.8 | – | 1/41 | 4.9 | (3.5-6.18) | – | – | – |
| VKEAIDRRLHFKVEVKPASF [YK-1361] | 5/41 | 12.2 | – | 0/46 | 4.12 | (3.21-6.28) | – | – | – |
| SEKTIWSLIAWQRSNAEFEQ [YK-1434] | 11/41 | 26.8 | – | 1/27 | 7.47 | (3.85-16.03) | – | – | – |
| VAKLVTQEMFQNIDKKIESQ [YK-1393] | 24/41 | 58.5 | – | 1/27 | 10.15 | (4.64-16.36) | very broad and strong antigenic reactivity | 10.15 | 58.5 |
| RCEPVVCYLYGKRGGGKSLT [YK-1348] | 14/48 | 29.2 | – | 2/51 | 6.96 | (3.66-15.48) | – | – | 29.2 |
| FDFQVFPTKYHSGRLLFCFV [YK-1249] | 18/46 | 39.1 | – | 0/48 | 5.03 | (3.07-7.03) | broadly and strongly immunoreactive | – | – |
| VDDPRSEEDKRFESHIECRK [YK-1314] | 26/48 | 54.2 | – | 1/51 | 14.68 | (3.53-89.96) | broad and strong antigenic reactivity | – | – |
| LYNEQFAVQGLLRYHTYARF [YK-1215] | 10/41 | 24.4 | – | 0/46 | 5.29 | (3.41-8.83) | not found immunoreactive | – | – |
| KVNFPHGMLDLEEIAANSKD [YK-1327] | 15/48 | 31.3 | – | 1/51 | 6.16 | (3.28-9.76) | – | – | – |
| HGVTKPKQVIKLDADPVESQ [YK-1374] | 18/41 | 43.9 | – | 0/27 | 10.57 | (3.28-29.07) | very broad and strong antigenic reactivity | – | – |
| TKPVASDYWDGYSGQLVCII [YK-1352] | 8/48 | 16.7 | – | 0/51 | 4.45 | (3.38-5.81) | – | – | – |
| VASHVRVNVYLSAINLECFA [YK-1261] | 16/41 | 39.0 | – | 1/46 | 5.27 | (3.72-7.9) | broadly and strongly immunoreactive | – | – |
| FPELKPGESRHTSDHMSIYK [YK-1274] | 9/46 | 19.6 | – | 1/48 | 5.31 | (3.0-8.47) | – | – | – |
| TPVGLAVDTPWVEKESALSI [YK-1290] | 6/48 | 12.5 | – | 1/51 | 4.48 | (3.0-6.44) | – | – | – |
